# Test results published in patent US20150087722A1, “TREATMENT FOR BREAST TUMOR CELL METASTASIS” (China Medical University, priority 2012, published 2015).
# Assays:
# [1] = tested on: cells stimulated by 10 ng/mL TNF-α; assay: wound scratching assay of cells stimulated by TNF-α; format: cell-based; details: 10 and 20 μM, 24 h
# Protocol: In the wound scratching assay for observing cell migration, the cells MDA-MB-231 (3×10^5) were planted in a 12-well plate, and the next day the cells were washed with PBS twice. The original culture medium then was replaced by 1% FBS cell culture medium. The next day a space was scratched at the bottom of the well. The cell culture medium was removed and the cells were washed with PBS twice. 1% FBS cell culture medium and the compound II of different concentrations were added and photographs were taken after 0, 12, 24 and 36 h so as to observe migration of cells. After the reaction, the cells were fixed for 30 min using 75% ice alcohol. After the alcohol was completely volatilized, the cells were stained with Giemsa Stain. The migration number of cells was counted in three random fields (200×) under the microscope (Lin et al., 2008). […] After the breast tumor cells were treated for 0, 12, 24 and 36 h, the quantitative result of effect of the compound II on metastasis of breast tumor cells MDA-MD-231 was observed, and the data results were represented by mean±SD values, where n=3. FIG. 19 illustrates the effect of the compound II in different doses on migration of cells stimulated by 10 ng/mL TNF-α and detected by the wound scratching assay, where the cells were observed under a microscope. […]
# [2] = tested on: E-cadherin and Vimentin in MDA-MB-231 cells; assay: E-cadherin Luciferase activity / immunocytochemical analysis (ICC); format: cell-based, human
# Excerpt: Thus, taking the MDA-MB-231 cell as an example, the expression results of E-cadherin and Vimentin in the cell were observed. FIG. 6 is a quantitative analysis diagram showing Luciferase activity of E-cadherin obtained from a primary antibody E-cadherin by an immunocytochemical analysis (ICC). In FIG. 6, a transformed cell strain only including an empty vector (pC3.1) is the negative control, and a cell strain including no compound II is the background control, the translational activity is defined as 100%. ICC includes embedding the tumor cells in paraffin and slicing the embedded cells into slides having a thickness of […] by a slicer, deparaffinizing, rehydrating and renaturating, picking the slide out and putting the slide into the primary antibody E-cadherin; reacting for 1.5 h and washing the slide for three times with PBS, reacting with the secondary antibody for 30 min and washing the slide for three times with PBS, staining the slide with 3′,3′-diaminobenzendine (DAB) at a ratio of 1:30, and the slide was mounted with Entellanz.
# [3] = tested on: breast tumor cells MDA-MB-453; assay: MTT cell viability assay; format: cell-based, human; details: for cell viability: FIG. 24
# Protocol: The breast tumor cells (MDA-MB-231, MDA-MB-435, MDA-MB-453, MDA-MB-468 and MCF-7) were commercially obtained from the bioresource collection and research center (BCRC), and were cultured in a 10% FBS-DMEM culture medium (i.e., a DMEM culture medium including 10% fetal bovine serum (FBS)). The human breast cell MCF-10A was cultured in a 5% FBS-DMEM culture medium (including F12, insulin, hydrocortisol and epidermal growth factor). An environment of 5% CO2 was kept in the incubator at a constant temperature of 37° C. When a certain number of cells were generated in culture, the culture medium was removed after being centrifuged for 10 min at a rate of 900 rpm. The culture medium was replaced in 24 h before the experiment, and the number of cells was counted by a hemocytometer.
# The cell viability was determined by a method of […] (MTT assay). The test method for assaying cell viability refers to steps provided by Parada-Turska et al.
# The breast tumor cells MDA-MB-231 were inoculated in a 24-well plate (2.5×10^5 cells/well), and the next day after cells were adhered to the wall of the plate, the cells were washed with PBS. 1% FBS-DMEM culture medium was then added so as to synchronize cells. The next day compound II having different concentrations were added into the wells, and the cells were subsequently cultured in an atmosphere of 5% CO2 at 37° C. for 24 h. The cells were washed with PBS once, and 400 μl MTT agent was added in each well so as to react for 4 h. Then 400 μl 10% SDS was added in each well so as to react for 12 h. 200 μl supernatant was taken from the well and then added into a 96-well microplate, so as to measure the absorbance at 570 nm.
# In the MTT assay, the MDA-MB-453 cells were cultured in a culture medium including 5% fetal bovine serum-DMEM F12/insulin/hydrocortisol/epidermal growth factor. Then the cells were cultured at an atmosphere of 5% CO2 in an incubator at a constant temperature of 37° C. When a certain number of cells were generated in culture, the culture medium was removed after being centrifuged at 900 rmp for 10 min. The culture medium was replaced in 24 h before the experiment, and the number of cells was counted by a hemocytometer.
compound,measurement,setting,value
COC1=C(OC)C(=O)C(C)=C(C)C1=O [compound II],cell migration,[1],not obvious
same,expression of vimentin,[2]; MDA-MB-231,inhibit expression of vimentin
same,expression amount of E-cadherin in the cytoplasm,"[2]; MDA-MB-231, with dose increasing, FIG. 6",increased
same,cell viability,[3]; 40 μM with 2.5 mM antioxidant NAC,recovered
same,cell viability,"[3]; 40 μM, compound only",half of that in the control group
same,IC50,"[3]; Homo sapiens, viability, MDA-MB-453 cell strain, Table 1",36.7 µM
same,viability of breast tumor cells,"[3]; MDA-MB-453, with increasing concentration, FIG. 21",inhibited significantly
